Results on eleven compounds are retold here after ChEMBL document CHEMBL1201862, “PubChem BioAssay data set” (2004).

Each structure is given as a SMILES string.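 Exposure lasted 48 hours, with cells grown in 96-well plates and compounds tested at five concentrations. At the GI50, growth is halved.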 Calls of active or inactive are those of the source. No stated cut-off is given here; in the data, active = GI50 up to about 1.1 µM and inactive = higher. Some results are limits rather than exact numbers.

Test systems include 786-0; CAKI-1; HCC 2998; HCT-116; HOP-92; Hs-578T; IGROV-1; KM12; LOX IMVI; MDA-MB-435; NCI/ADR-RES; OVCAR-3; SF-268; SF-295; SF-539; SN12C; SNB-75; T47D; UO-31; MDA-MB-231.
Holding throughout (assay): NCI-60 cell line screen, 48 h

With `CN(C)c1ncnc2c1ncn2C1C=CC(COS(N)(=O)=O)C1` (stereo not given), the GI50 is > 100 µM (inactive) in the assay with 786-0; > 100 µM (inactive) in the assay with CAKI-1; > 100 µM (inactive) in the assay with HCC 2998; > 100 µM (inactive) in the assay on HCT-116; > 100 µM (inactive) with HOP-92; 44.5 µM (inactive) with Hs-578T. The GI50 is > 100 µM (inactive) in the assay with IGROV-1; > 100 µM (inactive) in the assay with KM12; 96.2 µM (inactive) with LOX IMVI; > 100 µM (inactive) with MDA-MB-435; > 100 µM (inactive) with NCI/ADR-RES; > 100 µM (inactive) with OVCAR-3. In addition, the GI50 in the assay with SF-268, in the assay with SF-295, in the assay with SF-539, in the assay on SN12C, with SNB-75 and in the assay with T47D was > 100 µM (inactive) throughout. In addition, the GI50 in the assay on UO-31 is > 100 µM (inactive).

For `COC(=O)c1ccccc1/C=C1\Cc2ccc(C)c(C)c2C1=O`, the GI50 with 786-0 is 51.4 µM (inactive); with CAKI-1, > 100 µM (inactive); with HCC 2998, > 100 µM (inactive); with HCT-116, > 100 µM (inactive); with HOP-92, 34.2 µM (inactive); with Hs-578T, 92.9 µM (inactive). Besides, the GI50 in the assay with IGROV-1, with KM12, in the assay with LOX IMVI, with MDA-MB-435, with NCI/ADR-RES and with OVCAR-3 was > 100 µM (inactive) throughout. The GI50 is 54.5 µM (inactive) with SF-268; 77.8 µM (inactive) in the assay on SF-295; > 100 µM (inactive) in the assay on SF-539; > 100 µM (inactive) with SN12C; 35.4 µM (inactive) in the assay on SNB-75; > 100 µM (inactive) in the assay on T47D. Moreover, the GI50 with UO-31 was > 100 µM (inactive).

For `COc1cc(COC(=O)N(CC(=O)O)c2ccccc2)c([N+](=O)[O-])cc1OC`, the GI50 with 786-0, in the assay on HCC 2998, in the assay on HOP-92, in the assay with Hs-578T, with IGROV-1 and in the assay on KM12 was > 100 µM (inactive) in each case. The GI50 in the assay with MDA-MB-435, in the assay with NCI/ADR-RES, in the assay with OVCAR-3, with SF-268, with SF-295 and in the assay with SF-539 was > 100 µM (inactive) in each case. The GI50 in the assay with SN12C, in the assay on SNB-75, in the assay on T47D and with UO-31 was > 100 µM (inactive) throughout.

As for `CC(C(O)c1ccccc1)N(C)/N=N/c1nc2c([nH]1)c(=O)n(C)c(=O)n2C` (stereo not given), the GI50 in the assay on 786-0 is 74.1 µM (inactive); in the assay on CAKI-1 it was 58.6 µM (inactive); with HCC 2998, 39.9 µM (inactive); in the assay with HCT-116, > 100 µM (inactive); in the assay on Hs-578T, > 100 µM (inactive); in the assay on IGROV-1 it was 35.2 µM (inactive). Further, the GI50 is 46.2 µM (inactive) in the assay with KM12; 92.3 µM (inactive) with MDA-MB-231; 75.3 µM (inactive) in the assay on MDA-MB-435; > 100 µM (inactive) with NCI/ADR-RES; > 100 µM (inactive) with OVCAR-3; > 100 µM (inactive) in the assay on SF-268. Further, the GI50 in the assay with SF-295 is > 100 µM (inactive); with SN12C, 52.6 µM (inactive); in the assay on SNB-75, > 100 µM (inactive); in the assay with T47D, 85.5 µM (inactive); in the assay on UO-31, > 100 µM (inactive).

Turning to `Cc1cc2nc(N)n[n+]([O-])c2cc1C`, the GI50 in the assay on 786-0, in the assay with CAKI-1, in the assay on HCC 2998, in the assay with HCT-116, with Hs-578T and with IGROV-1 was > 100 µM (inactive) throughout. Moreover, the GI50 with KM12, with LOX IMVI, in the assay on MDA-MB-231, with MDA-MB-435, with NCI/ADR-RES and with SF-268 was > 100 µM (inactive) throughout. The GI50 was > 100 µM (inactive) in the assay on SF-295; > 100 µM (inactive) in the assay with SF-539; > 100 µM (inactive) with SN12C; > 10 µM (inactive) in the assay with SNB-75; > 100 µM (inactive) with T47D; > 100 µM (inactive) in the assay on UO-31.

As to `C=C1C(=O)O[C@H]2/C=C(/C)C3=CC(=O)[C@@](C)(C[C@@H](OC(=O)/C(C)=C\C)C12)O3` (stereo not given in full), the GI50 in the assay with 786-0 is 0.426 µM (active); in the assay on CAKI-1, 0.185 µM (active); in the assay with HCC 2998, 1.59 µM (inactive); with HCT-116, 0.377 µM (active); in the assay with HOP-92, 0.703 µM (active); in the assay with Hs-578T it was 6.05 µM (inactive). The GI50 in the assay on IGROV-1 was 0.971 µM (active); in the assay on KM12, 2.86 µM (inactive); in the assay with LOX IMVI it was 0.272 µM (active); with MDA-MB-231, 3.05 µM (inactive); in the assay on MDA-MB-435 it was 1.21 µM (inactive); in the assay on SF-268, 1.88 µM (inactive). Moreover, the GI50 with SF-295 was 12 µM (inactive); with SF-539, 1.93 µM (inactive); in the assay with SN12C, 1.36 µM (inactive); in the assay with SNB-75, 8.69 µM (inactive); with T47D, 0.811 µM (active); with UO-31, 1.21 µM (inactive).

For `Cc1cc(N(CCC#N)CCC#N)ccc1C(/N=N\c1ccc([N+](=O)[O-])cc1)=N\NC(=O)c1cc(Cl)ccc1O`, the GI50 is 47.8 µM (inactive) in the assay on 786-0; 40.7 µM (inactive) in the assay on CAKI-1; 16.4 µM (inactive) in the assay with HCC 2998; 25.5 µM (inactive) in the assay on HCT-116; 15.7 µM (inactive) in the assay on Hs-578T; 24.2 µM (inactive) in the assay on IGROV-1. Besides, the GI50 was 27.7 µM (inactive) with KM12; 30.3 µM (inactive) with MDA-MB-231; 64.9 µM (inactive) with MDA-MB-435; 28.7 µM (inactive) in the assay on NCI/ADR-RES; 14.2 µM (inactive) in the assay on OVCAR-3; 19.9 µM (inactive) in the assay on SF-268. Besides, the GI50 in the assay on SF-295 was 29.1 µM (inactive); in the assay on SF-539, 40.4 µM (inactive); in the assay with SN12C, 22.6 µM (inactive); with SNB-75 it was > 100 µM (inactive); with T47D, 25.9 µM (inactive); in the assay on UO-31, 13.8 µM (inactive).

With `CN(C)CCNC(=O)c1cnn(C)c1[N+](=O)[O-]`, the GI50 with 786-0 was > 100 µM (inactive); in the assay on CAKI-1, > 100 µM (inactive); in the assay with HCC 2998 it was > 100 µM (inactive); in the assay on HCT-116 it was 50.9 µM (inactive); with Hs-578T, > 100 µM (inactive); in the assay with IGROV-1 it was > 100 µM (inactive). Besides, the GI50 with KM12 was 68.1 µM (inactive); with LOX IMVI it was 46.7 µM (inactive); with MDA-MB-231, > 100 µM (inactive); in the assay on MDA-MB-435 it was > 100 µM (inactive); in the assay on OVCAR-3, 24.5 µM (inactive); with SF-268 it was > 100 µM (inactive). Also, the GI50 in the assay on SF-295, with SF-539, in the assay on SN12C, with SNB-75, with T47D and in the assay with UO-31 was > 100 µM (inactive) throughout.

In the case of `Cc1ccc(C2=CC(=O)OC(C[P+](c3ccccc3)(c3ccccc3)c3ccccc3)(c3ccccc3)O2)cc1` (stereo not given), the GI50 is 19.3 µM (inactive) in the assay with 786-0; 15.4 µM (inactive) in the assay on CAKI-1; 22.4 µM (inactive) with HCC 2998; 14.5 µM (inactive) with HCT-116; 18.2 µM (inactive) with Hs-578T; 13.7 µM (inactive) in the assay on IGROV-1. Moreover, the GI50 in the assay with KM12 is 17.7 µM (inactive); with MDA-MB-231 it was 28.5 µM (inactive); in the assay on MDA-MB-435, 16.2 µM (inactive); in the assay on NCI/ADR-RES, 19 µM (inactive); in the assay with OVCAR-3 it was 16.4 µM (inactive); in the assay on SF-268 it was 18.5 µM (inactive). Besides, the GI50 is 26.9 µM (inactive) with SF-295; 18.1 µM (inactive) in the assay on SF-539; 27.2 µM (inactive) in the assay with SN12C; 21.3 µM (inactive) in the assay on SNB-75; 20.6 µM (inactive) in the assay on T47D; 16.3 µM (inactive) in the assay on UO-31.

Turning to `CCOC(=O)c1cc(-c2ccc(Cl)cc2)c([N+](=O)[O-])n1C`, the GI50 in the assay with 786-0, in the assay with HCC 2998, with HCT-116, in the assay with HOP-92, with Hs-578T and in the assay with IGROV-1 was > 10 µM (inactive) in each case. The GI50 in the assay with KM12 was > 10 µM (inactive); with MDA-MB-231 it was 0.08 µM (active); in the assay with MDA-MB-435, > 10 µM (inactive); in the assay with OVCAR-3, > 10 µM (inactive); in the assay with SF-268, > 10 µM (inactive); with SF-295, > 10 µM (inactive). The GI50 in the assay with SF-539 is > 10 µM (inactive); in the assay with SN12C it was > 10 µM (inactive); in the assay with T47D, 2.05 µM (inactive); in the assay with UO-31, 5.48 µM (inactive).

For `C=CCCCC1CCCNC1=O` (stereo not given), the GI50 in the assay on 786-0, with CAKI-1, with HCC 2998, with HCT-116, with HOP-92 and in the assay with Hs-578T was > 100 µM (inactive) each time. Further, the GI50 in the assay on IGROV-1, with KM12, in the assay on MDA-MB-231, with MDA-MB-435, in the assay with OVCAR-3 and in the assay on SF-268 was > 100 µM (inactive) each time. For the same compound, the GI50 with SF-295, with SF-539, in the assay with SN12C, in the assay on SNB-75, with T47D and with UO-31 was > 100 µM (inactive) throughout.
